The nature of data set [1]: Intrinsic clearance in human hepatocytes at 1 uM assessed as per million cells after 2 to 60 mins by LC-MS/MS analysis. The conditions noted are these: read-out: CLH. Type of data set: ADME, cell-based, Hepatocyte.
A short description of data set [2]: Displacement of [3H]-GABA/[3]-muscimol from GABA gated chloride channel in Sprague-Dawley rat cortical synoptic membranes by liquid scintillation analysis.
Data set [3] in a line: Octanol/Sodium phosphate buffer partition coefficient, log D of compound at pH 7.4 at 1 mg incubated for overnight under shaking condition by LC-MS/MS analysis. In kind it is physicochemical.
For data set [4], the target named is T1, Leukotriene C4 synthase (Homo sapiens, UniProt Q16873).
T1 sequence (Q16873 whole entry): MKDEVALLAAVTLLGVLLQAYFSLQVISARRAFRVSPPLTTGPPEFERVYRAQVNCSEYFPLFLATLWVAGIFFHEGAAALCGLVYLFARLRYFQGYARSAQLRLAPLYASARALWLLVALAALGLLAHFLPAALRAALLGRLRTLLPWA

Data set [5] concerns the target T1, Leukotriene C4 synthase. This is another data set of the same source.
Data set [6] has as its target T2, Leukotriene C4 synthase (Homo sapiens) (UniProt Q16873).
T2 sequence (whole entry): T1 sequence (Q16873 whole entry)
Briefly: Inhibition of LTC4S in asthmatic human whole blood assessed as inhibition of calcium ionophore A23187 stimulated cysteinyl leukotrienes production preincuabted for 30 mins followed by calcium ionophore stimulation and measured after 10 mins by LC-MS analysis. Type of data set: tissue-based.

The target of data set [7] is T2, Leukotriene C4 synthase (Homo sapiens). Briefly: Inhibition of LTC4S in healthy human whole blood assessed as inhibition of calcium ionophore A23187 stimulated cysteinyl leukotrienes production preincuabted for 30 mins followed by calcium ionophore stimulation and measured after 10 mins by LC-MS analysis. Type of data set: tissue-based.
The target is the same in data set [8].

Here are results for 33 compounds from ChEMBL document CHEMBL4376816, “Discovery of the Oral Leukotriene C4 Synthase Inhibitor (1S,2S)-2-({5-[(5-Chloro-2,4-difluorophenyl)(2-fluoro-2-methylpropyl)amino]-3-methoxypyrazin-2-yl}carbonyl)cyclopropanecarboxylic Acid (AZD9898) as a New Treatment for Asthma” (J Med Chem, 2019).

Active and inactive are the calls of the source. No cut-off for these calls is given here.

As usually defined, the IC50 is the midpoint of a concentration-inhibition curve. High values mean a need for much substance, low ones inhibition by little substance. A word on the logD: it is lipophilicity at a set pH, counting ionised and neutral species. A high value points to a more lipophilic compound.

As for `COc1cc(N(CC2CC2)c2cc(C(F)(F)F)ccc2F)cnc1C(=O)[C@H]1C[C@@H]1C(=O)O`, the hepatocyte CLint at 1 µM in data set [1] is below 1.1 µL/min/1e6 cells. Moreover, in data set [2], the IC50 worked out at 8200 nM. The compound also had a logD in data set [3] of 1.2.

The compound `COc1nc(C(=O)[C@H]2C[C@@H]2C(=O)O)ncc1N(CC1CC1)c1cccc2ccccc12` gave an IC50 against Leukotriene C4 synthase [4] of 2.4 nM.

Turning to `CCCN(c1cnc(C(=O)[C@H]2C[C@@H]2C(=O)O)c(OC)c1)c1ccc(F)c2ccccc12`, in data set [1], the hepatocyte CLint at 1 µM was determined as 7.6 µL/min/1e6 cells. In data set [2], this compound had an IC50 of 3500 nM. Also, in data set [3], the logD was 1.8.

For the compound `COc1cc(N(CC2CC2)c2ccccc2)cnc1C(=O)[C@H]1C[C@@H]1C(=O)O`, the hepatocyte CLint at 1 µM in data set [1] came to 3 µL/min/1e6 cells. In data set [3], this compound gave a logD of 0.65.

As for `COc1cc(N(CC(C)C)c2ccc(F)c3ccccc23)cnc1C(=O)[C@H]1C[C@@H]1C(=O)O`, the hepatocyte CLint at 1 µM in data set [1] worked out at 56 µL/min/1e6 cells. The compound also displayed a logD in data set [3] of 2.2.

`COc1cc(N(CC(C)(C)F)c2cc(Cl)c(F)cc2F)cnc1C(=O)[C@H]1C[C@@H]1C(=O)O`: in data set [1], the hepatocyte CLint at 1 µM is below 1.7 µL/min/1e6 cells. Further, in data set [3], the logD worked out at 0.8.

For the compound `COc1cc(N(CC2CC2)c2cc(Cl)ccc2F)cnc1C(=O)[C@H]1C[C@@H]1C(=O)O`, the hepatocyte CLint at 1 µM in data set [1] is 1.3 µL/min/1e6 cells. Besides, the logD in data set [3] came out at 1.1.

As for `COc1nc(N(CC(C)C)c2cc(C(F)(F)F)ccc2F)cnc1C(=O)[C@H]1C[C@@H]1C(=O)O`, the hepatocyte CLint at 1 µM in data set [1] stood at 2.9 µL/min/1e6 cells. Besides, the IC50 at Leukotriene C4 synthase [5] was found to be 3.5 nM; on Leukotriene C4 synthase [4], 0.36 nM. Besides, the logD in data set [3] is 2.

For `CCCN(c1cccc(C(F)(F)F)c1)c1cnc(C(=O)[C@H]2C[C@@H]2C(=O)O)c(OC)c1`, the hepatocyte CLint at 1 µM in data set [1] amounted to 7.2 µL/min/1e6 cells. Besides, in data set [2], the IC50 came out at 19000 nM. In data set [3], this compound came in with a logD of 1.2.

For `CCN(c1cccc(C(F)(F)F)c1)c1cnc(C(=O)[C@H]2C[C@@H]2C(=O)O)c(OC)c1`, the hepatocyte CLint at 1 µM in data set [1] came out at 3.1 µL/min/1e6 cells. Further, in data set [2], the IC50 was 20000 nM. The compound further registered a logD in data set [3] of 0.7.

The compound `COc1ccccc1C(=O)Nc1ccc(C(=O)c2ccc(N(C)c3ccc(Cl)cc3)cn2)cc1C(=O)O` returned an IC50 on Leukotriene C4 synthase [4] of 35 nM.

On to `COc1cc(N(CC2CC2)c2ccc(Cl)cc2)cnc1C(=O)[C@@H]1C[C@H]1C(=O)O` (relative stereo), for which the hepatocyte CLint at 1 µM in data set [1] was found to be 1.8 µL/min/1e6 cells. In data set [3], this compound returned a logD of 1.3.

Consider `COc1cc(N(CC2CC2)c2ccc(Cl)cc2)cnc1C(=O)c1cccc(C(=O)O)c1`, for which the hepatocyte CLint at 1 µM in data set [1] was found to be 28 µL/min/1e6 cells. Also, in data set [3], the logD turned out to be 1.7.

On to `COc1cc(N(CC(F)(F)F)c2cccc(C(F)(F)F)c2)cnc1C(=O)[C@H]1C[C@@H]1C(=O)O`, for which, in data set [3], the logD turned out to be 1.1.

Take `COc1cc(N(CC(C)C)c2cc(C(F)(F)F)ccc2F)cnc1C(=O)[C@H]1C[C@@H]1C(=O)O`: the hepatocyte CLint at 1 µM in data set [1] stood at 3.9 µL/min/1e6 cells. The half-inhibitory concentration (IC50) on Leukotriene C4 synthase [5] was determined as 6.8 nM. The same compound yielded a logD in data set [3] of 1.4.

Regarding `COc1nc(C(=O)[C@@H]2C[C@H]2C(=O)O)ncc1N(CC1CC1)c1ccc(Cl)c2ccccc12` (relative stereo), in data set [1], the hepatocyte CLint at 1 µM came out at 15 µL/min/1e6 cells. In addition, the logD in data set [3] came to 2.9. Also, 15.5 nM corresponded to half-maximal inhibition at Leukotriene C4 synthase [4] (IC50).

For the compound `COc1cc(N(CC(C)(C)F)c2cccc(C(F)(F)F)c2)cnc1C(=O)[C@H]1C[C@@H]1C(=O)O`, the hepatocyte CLint at 1 µM in data set [1] is below 1.5 µL/min/1e6 cells. In data set [2], this compound displayed an IC50 of 54000 nM. In data set [3], this compound showed a log distribution coefficient (logD) of 0.9.

In the case of `CCN(c1cnc(C(=O)[C@H]2C[C@@H]2C(=O)O)c(OC)c1)c1ccc(F)c2ccccc12`, the hepatocyte CLint at 1 µM in data set [1] is 3.8 µL/min/1e6 cells. Besides, in data set [2], the concentration for half-maximal inhibition (IC50) is 2900 nM. This compound also displayed a logD in data set [3] of 1.4.

Regarding `COc1cc(N(CC(C)C)c2cc(Cl)c(F)cc2F)cnc1C(=O)[C@H]1C[C@@H]1C(=O)O`, the hepatocyte CLint at 1 µM in data set [1] was found to be 4.9 µL/min/1e6 cells. For the same compound, in data set [3], the logD was 1.3.

With `COc1cc(N(CC2CC2)c2ccc(F)c3ccccc23)cnc1C(=O)[C@H]1C[C@@H]1C(=O)O`, the hepatocyte CLint at 1 µM in data set [1] is 5.4 µL/min/1e6 cells. This compound came in with an IC50 in data set [2] of 640 nM. In data set [3], this compound displayed a logD of 1.9.

In the case of `COc1cc(N(CC2CC2)c2ccc(Cl)c3ccccc23)cnc1C(=O)CCCC(=O)O`, the hepatocyte CLint at 1 µM in data set [1] worked out at 6.8 µL/min/1e6 cells. This compound also returned a logD in data set [3] of 2.8.

In the case of `COc1nc(N(CC(C)(C)F)c2cc(C(F)(F)F)ccc2F)cnc1C(=O)[C@H]1C[C@@H]1C(=O)O`, the hepatocyte CLint at 1 µM in data set [1] was 1.5 µL/min/1e6 cells. Besides, half-maximal inhibition against Leukotriene C4 synthase [5] (IC50) was put at 7.8 nM. Further, the logD in data set [3] came out at 1.2.

On to `COc1cc(N(Cc2ccc(F)cc2)c2cccc(C(F)(F)F)c2)cnc1C(=O)[C@H]1C[C@@H]1C(=O)O`, for which the hepatocyte CLint at 1 µM in data set [1] was found to be 4.2 µL/min/1e6 cells. This compound also showed a logD in data set [3] of 1.9.

In the case of `CC(c1cc2ccccc2s1)N(O)C(N)=O` (stereo not given), the inhibition entry in data set [6] and in data set [7] was “Active” throughout.

`O=C(Nc1ccc(Cc2ccc(NC(=O)c3ccccc3)c(C(=O)O)c2)cc1C(=O)O)c1ccccc1`: the 50% inhibitory concentration (IC50) against Leukotriene C4 synthase [4] was found to be 1900 nM. Besides, in data set [8], the inhibition result was “inactive”.

As for `COc1cc(N(CC2CC2)c2cccc(C(F)(F)F)c2)cnc1C(=O)[C@H]1C[C@@H]1C(=O)O`, the hepatocyte CLint at 1 µM in data set [1] is 2.3 µL/min/1e6 cells. In data set [2], the IC50 was 11000 nM. Also, in data set [3], the logD amounted to 1.4.

Regarding `COc1cc(N(CC(C)C)c2cccc(C(F)(F)F)c2)cnc1C(=O)[C@H]1C[C@@H]1C(=O)O`, the hepatocyte CLint at 1 µM in data set [1] is 2.9 µL/min/1e6 cells. The compound further had a logD in data set [3] of 1.6.

On to `COc1cc(N(CC2CC2)c2ccc(Cl)c(Cl)c2)cnc1C(=O)[C@H]1C[C@@H]1C(=O)O`, for which, in data set [1], the hepatocyte CLint at 1 µM came out at 4.3 µL/min/1e6 cells. The logD in data set [3] came out at 1.6.

As for `COc1cc(N(CC2CC2)c2cc(Cl)c(F)cc2F)cnc1C(=O)[C@H]1C[C@@H]1C(=O)O`, in data set [1], the hepatocyte CLint at 1 µM was below 1.5 µL/min/1e6 cells. This compound also returned an IC50 in data set [2] of 5400 nM. Further, the log distribution coefficient (logD) in data set [3] was 1.1.

Consider `COc1cc(N(CC(C)(C)F)c2cc(C(F)(F)F)ccc2F)cnc1C(=O)[C@H]1C[C@@H]1C(=O)O`, for which the hepatocyte CLint at 1 µM in data set [1] is below 1 µL/min/1e6 cells. The compound also gave a pH-dependent lipophilicity (logD) in data set [3] of 0.8.

Turning to `COc1nc(N(CC(C)C)c2cc(Cl)c(F)cc2F)cnc1C(=O)[C@H]1C[C@@H]1C(=O)O`, the hepatocyte CLint at 1 µM in data set [1] stood at 3 µL/min/1e6 cells. For the same compound, the IC50 against Leukotriene C4 synthase [5] was determined as 4.1 nM; against Leukotriene C4 synthase [4], 0.28 nM. In addition, the logD in data set [3] turned out to be 1.8.

Turning to `COc1cc(N(CC2CC2)c2ccc(F)c(Cl)c2)cnc1C(=O)[C@H]1C[C@@H]1C(=O)O`, the hepatocyte CLint at 1 µM in data set [1] came to 3.1 µL/min/1e6 cells. Further, in data set [2], the IC50 came out at 3000 nM. The logD in data set [3] was 1.2.

In turn, `COc1cc(N(CC(C)(C)O)c2cccc(C(F)(F)F)c2)cnc1C(=O)[C@H]1C[C@@H]1C(=O)O` displayed an IC50 in data set [2] above 100000 nM. In addition, the logD in data set [3] was found to be 0.
